Data taken from patent publication US6706663B2, “Herbicidal 3-heterocyclic substituted benzisothiazole and benzisoxazole compounds” (Wyeth, priority 2000, dated 2004).

Key:
[1] = test system: ABUTH (Abutilon theophrasti); assay: Postemergence herbicidal evaluation; assay type: in vivo, Medic.; conditions: rate 0.0620 kg/ha
Summary of the method: (§1)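 Visual 0–9 injury scores versus control plants, covering stand, vigour, malformation, size, chlorosis and general appearance, taken four to five weeks post-spray and averaged over replicate tests. Plants were sprayed at roughly two weeks old and held on greenhouse benches.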

[2] = test system: AMBEL (Ambrosia artemisifolia); assay: Postemergence herbicidal evaluation; assay type: in vivo, L.; conditions: rate 0.0620 kg/ha
Summary of the method: as §1

[3] = test system: CASOB (Cassia obtusifolia); assay: Postemergence herbicidal evaluation; assay type: in vivo, L.; conditions: rate 0.0620 kg/ha
Summary of the method: as §1

[4] = test system: CHEAL (Chenopodium album); assay: Postemergence herbicidal evaluation; assay type: in vivo, L.; conditions: rate 0.0620 kg/ha
Summary of the method: as §1

[5] = test system: GALAP (Galium aparine); assay: Postemergence herbicidal evaluation; assay type: in vivo; conditions: rate 0.0620 kg/ha
Summary of the method: as §1

[6] = test system: IPOHE (Ipomoea hederacea); assay: Postemergence herbicidal evaluation; assay type: in vivo, (L.) Jacq.; conditions: rate 0.0620 kg/ha
Summary of the method: as §1

[7] = test system: ECHCG (Echinochloa crus-galli); assay: Postemergence herbicidal evaluation; assay type: in vivo, (L.) Beau; conditions: rate 0.0620 kg/ha
Summary of the method: as §1

[8] = test system: SETVI (Setaria viridis); assay: Postemergence herbicidal evaluation; assay type: in vivo, (L.) Beau; conditions: rate 0.0620 kg/ha
Summary of the method: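 Seedlings about two weeks old were sprayed with compound in 50/50 acetone/water plus 0.5% TWEEN 20, at the equivalent of about 0.0040 to 1.000 kg/ha. Plants were kept in a greenhouse and visually rated 0-9 against a control four to five weeks after treatment. Repeat tests were averaged.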

[9] = test system: GLXMAW (Soybean, Williams); assay: Postemergence herbicidal evaluation; assay type: in vivo, Glycine max, (L.) Merr. cv Williams; conditions: rate 0.0620 kg/ha
Summary of the method: as §1

[10] = test system: ORYSAT (Rice, Tebonnet); assay: Postemergence herbicidal evaluation; assay type: in vivo, Oryza sativa, (L.) Tebonnet; conditions: rate 0.0620 kg/ha
Summary of the method: as §1

[11] = test system: TRZAWR (Wheat, Winter, cv Riband); assay: Postemergence herbicidal evaluation; assay type: in vivo, Triticum aestivum; conditions: rate 0.0620 kg/ha
Summary of the method: as §1

[12] = test system: ZEAMX (Corn, Field); assay: Postemergence herbicidal evaluation; assay type: in vivo, Zea mays, L.; conditions: rate 0.0620 kg/ha
Summary of the method: as §1

[13] = test system: ABUTH (Abutilon theophrasti); assay: Preemergence herbicidal evaluation; assay type: in vivo, Medic.; conditions: Rate 0.2500 kg/ha; preemergence; rated 4-5 weeks after treatment
[14] = test system: AMBEL (Ambrosia artemisifolia); assay: Preemergence herbicidal evaluation; assay type: in vivo, L.; conditions: Rate 0.2500 kg/ha; preemergence; rated 4-5 weeks after treatment
Summary of the method: (§2)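 Rating 0–9, visual, vs control; 4–5 wk after spraying seeded cups with compound in aq. acetone; conventional greenhouse care.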

[15] = test system: CASOB (Cassia obtusifolia); assay: Preemergence herbicidal evaluation; assay type: in vivo, L.; conditions: Rate 0.2500 kg/ha; preemergence; rated 4-5 weeks after treatment
Summary of the method: as §2

[16] = test system: CHEAL (Chenopodium album); assay: Preemergence herbicidal evaluation; assay type: in vivo, L.; conditions: Rate 0.2500 kg/ha; preemergence; rated 4-5 weeks after treatment
Summary of the method: as §2

[17] = test system: GALAP (Galium aparine); assay: Preemergence herbicidal evaluation; assay type: in vivo; conditions: Rate 0.2500 kg/ha; preemergence; rated 4-5 weeks after treatment
Summary of the method: as §2

[18] = test system: IPOHE (Ipomoea hederacea); assay: Preemergence herbicidal evaluation; assay type: in vivo, (L.) Jacq.; conditions: Rate 0.2500 kg/ha; preemergence; rated 4-5 weeks after treatment
[19] = test system: ECHCG (Echinochloa crus-galli); assay: Preemergence herbicidal evaluation; assay type: in vivo, (L.) Beau; conditions: Rate 0.2500 kg/ha; preemergence; rated 4-5 weeks after treatment
Summary of the method: as §2

[20] = test system: SETVI (Setaria viridis); assay: Preemergence herbicidal evaluation; assay type: in vivo, (L.) Beau; conditions: Rate 0.2500 kg/ha; preemergence; rated 4-5 weeks after treatment
Summary of the method: as §2

[21] = test system: GLXMAW (Soybean, Williams); assay: Preemergence herbicidal evaluation; assay type: in vivo, Glycine max, (L.) Merr. cv Williams; conditions: Rate 0.2500 kg/ha; preemergence; rated 4-5 weeks after treatment
[22] = test system: ORYSAT (Rice, Tebonnet); assay: Preemergence herbicidal evaluation; assay type: in vivo, Oryza sativa, (L.) Tebonnet; conditions: Rate 0.2500 kg/ha; preemergence; rated 4-5 weeks after treatment
[23] = test system: TRZAWR (Wheat, Winter, cv Riband); assay: Preemergence herbicidal evaluation; assay type: in vivo, Triticum aestivum; conditions: Rate 0.2500 kg/ha; preemergence; rated 4-5 weeks after treatment
Summary of the method: as §2

[24] = test system: ZEAMX (Corn, Field); assay: Preemergence herbicidal evaluation; assay type: in vivo, Zea mays, L.; conditions: Rate 0.2500 kg/ha; preemergence; rated 4-5 weeks after treatment
[25] = test system: ECHORC (Echinochloa oryzoides); assay: Flooded paddy, preemergence weed control; assay type: in vivo, Echinochloa oryzoides (Ard.) Fritsch.; conditions: rate 0.1250 kg/ha, rated 3-4 weeks after treatment, 0-9 rating scale
Summary of the method: (§3)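 Seeds or propagules were planted in the top 0.5 cm of silt loam soil and kept flooded 1.5–3 cm above the surface throughout, then held in the greenhouse. Injury was rated visually on a 0–9 scale against untreated controls, covering stand, vigor, malformation, size and chlorosis.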

[26] = test system: CYPIR (Cyperus iria); assay: Flooded paddy, preemergence weed control; assay type: in vivo; conditions: rate 0.1250 kg/ha, rated 3-4 weeks after treatment, 0-9 rating scale
Summary of the method: as §3

[27] = test system: CYPSE (Cyperus serotinus); assay: Flooded paddy, preemergence weed control; assay type: in vivo, Rottb.; conditions: rate 0.1250 kg/ha, rated 3-4 weeks after treatment, 0-9 rating scale
Description: Results of herbicide evaluation are expressed on a rating scale (0-9). The scale is based upon a visual observation of plant stand, vigor, malformation, size, chlorosis and overall plant appearance as compared with a control.
Preemergence herbicidal activity under flooded paddy conditions is determined as follows: plant seeds or propagating organs are planted in the top 0.5 cm of silt loam soil in 32 oz. plastic containers with a diameter of 10.5 cm and no drainage holes. Water is added to these containers and maintained at 1.5 to 3 cm above the soil surface for the duration of the experiment. The test compounds are applied as aqueous/acetone mixtures 50/50 v/v pipetted directly into the flood water to give the equivalent of about 0.0080 to 0.1250 kg/ha of active ingredient. The treated containers are placed on greenhouse benches and cared for in accordance with conventional greenhouse procedures. Three to four weeks after treatment, the test is terminated and each container is examined and herbicidal effect rated according to the rating system provided in Example 87.

[28] = test system: MOOVA (Monochoria vaginalis); assay: Flooded paddy, preemergence weed control; assay type: in vivo, Presl.; conditions: rate 0.1250 kg/ha, rated 3-4 weeks after treatment, 0-9 rating scale
Summary of the method: as §3

[29] = test system: SAGPY (Sagittaria pygmaea); assay: Flooded paddy, preemergence weed control; assay type: in vivo, L.; conditions: rate 0.1250 kg/ha, rated 3-4 weeks after treatment, 0-9 rating scale
Summary of the method: as §3

[30] = test system: ORYSAT (Rice, Tebonnet); assay: Flooded paddy, post-transplant rice tolerance; assay type: in vivo, Oryza sativa, (L.) Tebonnet; conditions: flooded paddy, post-transplant rice; rate 0.1250 kg/ha; rated 3-4 weeks after treatment; 0-9 rating scale
Summary of the method: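 Two ten-day-old seedlings were transplanted into silt loam, flooded and held at 1.5 to 3 cm water above the soil before herbicide treatment. Pots stayed in the greenhouse at that water level. Injury was scored visually on a 0-9 scale versus untreated control.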

Structure (SMILES): C[C@H]1O[C@@H]1c1nsc2ccc(-n3c(=O)cc(C(F)(F)F)n(C)c3=O)cc12 [Compound 14, 3-[3-[(1R,2R)-1,2-epoxypropyl]-1,2-benzisothiazol-5-yl]-1-methyl-6-(trifluoromethyl)uracil]
- Postemergence herbicidal rating, ABUTH [1]: 9.0
- Postemergence herbicidal rating, AMBEL [2]: 9.0
- Postemergence herbicidal rating, CASOB [3]: 2.0
- Postemergence herbicidal rating, CHEAL [4]: 8.0
- Postemergence herbicidal rating, GALAP [5]: 9.0
- Postemergence herbicidal rating, IPOHE [6]: 9.0
- Postemergence herbicidal rating, ECHCG [7]: 2.0
- Postemergence herbicidal rating, SETVI [8]: 3.0
- Postemergence herbicidal rating, GLXMAW [9]: 7.5
- Postemergence herbicidal rating, ORYSAT [10]: 6.0
- Postemergence herbicidal rating, TRZAWR [11]: 6.5
- Postemergence herbicidal rating, ZEAMX [12]: 6.0
- ABUTH preemergence herbicidal rating [13]: 9.0
- AMBEL preemergence herbicidal rating [14]: 9.0
- CASOB preemergence herbicidal rating [15]: 9.0
- CHEAL preemergence herbicidal rating [16]: 9.0
- GALAP preemergence herbicidal rating [17]: 9.0
- IPOHE preemergence herbicidal rating [18]: 9.0
- ECHCG preemergence herbicidal rating [19]: 9.0
- SETVI preemergence herbicidal rating [20]: 9.0
- GLXMAW preemergence herbicidal rating [21]: 8.0
- ORYSAT preemergence herbicidal rating [22]: 9.0
- TRZAWR preemergence herbicidal rating [23]: 9.0
- ZEAMX preemergence herbicidal rating [24]: 8.5
- herbicidal rating, ECHORC [25]: 8.0
- herbicidal rating, CYPIR [26]: 9.0
- herbicidal rating, CYPSE [27]: 8.0
- herbicidal rating, MOOVA [28]: 9.0
- herbicidal rating, SAGPY [29]: 9.0
- herbicidal rating, ORYSAT (rice tolerance) [30]: 9.0
